Experimental data: patent US8859616B2, “Compounds and methods for enhancing hair growth” (Allergan, Inc., priority 2011, dated 2014)

Columns and labels:
Assay in all cases: Prostanoid receptor functional activity measured by FLIPR
Type in all cases: cell-based
Details in all cases: n = 6 (#1), n = 3 (#2)
[1] = target: T1, hTP (Homo sapiens, UniProt P21731)
T1 sequence (P21731 1-343): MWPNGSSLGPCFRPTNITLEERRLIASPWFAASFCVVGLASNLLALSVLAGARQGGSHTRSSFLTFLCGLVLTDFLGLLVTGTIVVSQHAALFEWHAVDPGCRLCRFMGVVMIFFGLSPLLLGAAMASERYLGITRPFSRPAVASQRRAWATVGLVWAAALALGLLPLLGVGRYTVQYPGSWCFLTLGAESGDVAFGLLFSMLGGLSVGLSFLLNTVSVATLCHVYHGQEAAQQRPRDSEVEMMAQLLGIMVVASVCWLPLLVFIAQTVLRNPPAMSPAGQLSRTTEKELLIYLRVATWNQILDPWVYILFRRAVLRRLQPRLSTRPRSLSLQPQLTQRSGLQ
Description: (§1) The above compounds are evaluated for their selectivity for various prostaglandin (PG) receptors. […] Thus, the method of the present invention may be carried out with EP3 and EP4 receptor agonists and/or prodrugs of EP3 and EP4 receptor agonists.

[2] = target: T2, hDP (Homo sapiens, UniProt Q13258)
T2 sequence (Q13258 1-359): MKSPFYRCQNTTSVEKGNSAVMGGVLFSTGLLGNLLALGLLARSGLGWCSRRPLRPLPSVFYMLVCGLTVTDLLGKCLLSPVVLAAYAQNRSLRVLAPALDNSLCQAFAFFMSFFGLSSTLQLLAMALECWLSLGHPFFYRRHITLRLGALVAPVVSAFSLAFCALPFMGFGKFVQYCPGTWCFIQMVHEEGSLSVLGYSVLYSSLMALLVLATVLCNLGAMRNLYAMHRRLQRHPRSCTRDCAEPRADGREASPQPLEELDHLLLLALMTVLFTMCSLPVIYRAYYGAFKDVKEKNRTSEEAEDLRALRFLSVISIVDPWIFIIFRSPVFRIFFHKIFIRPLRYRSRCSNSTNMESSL
Description: as §1

[3] = target: hFP (Homo sapiens, UniProt P43088)
Sequence of hFP (P43088 whole entry): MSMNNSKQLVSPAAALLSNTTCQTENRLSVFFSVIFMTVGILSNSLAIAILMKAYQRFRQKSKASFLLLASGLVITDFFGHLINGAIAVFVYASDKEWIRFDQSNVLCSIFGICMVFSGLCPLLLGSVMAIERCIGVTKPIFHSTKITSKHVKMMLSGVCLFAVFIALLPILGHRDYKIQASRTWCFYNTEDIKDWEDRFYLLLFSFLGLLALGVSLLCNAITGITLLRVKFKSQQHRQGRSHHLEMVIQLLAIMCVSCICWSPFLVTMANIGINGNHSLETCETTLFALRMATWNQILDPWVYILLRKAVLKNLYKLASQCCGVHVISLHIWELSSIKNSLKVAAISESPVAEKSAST
Description: as §1

[4] = target: T3, hEP1 (Homo sapiens, UniProt P34995)
T3 sequence (P34995 1-402): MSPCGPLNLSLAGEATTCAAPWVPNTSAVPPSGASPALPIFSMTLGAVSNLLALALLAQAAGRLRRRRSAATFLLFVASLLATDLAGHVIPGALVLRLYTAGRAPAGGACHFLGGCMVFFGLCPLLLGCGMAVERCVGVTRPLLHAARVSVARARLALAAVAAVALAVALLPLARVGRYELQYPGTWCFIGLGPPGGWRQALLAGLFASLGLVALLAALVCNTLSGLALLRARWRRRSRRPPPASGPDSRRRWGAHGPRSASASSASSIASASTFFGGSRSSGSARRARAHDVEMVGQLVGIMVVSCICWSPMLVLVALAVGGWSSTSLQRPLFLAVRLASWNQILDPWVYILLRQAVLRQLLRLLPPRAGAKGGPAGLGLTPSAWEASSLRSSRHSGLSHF
Description: as §1

[5] = target: T4, hEP3 (Homo sapiens, UniProt P43115)
T4 sequence (P43115 1-390): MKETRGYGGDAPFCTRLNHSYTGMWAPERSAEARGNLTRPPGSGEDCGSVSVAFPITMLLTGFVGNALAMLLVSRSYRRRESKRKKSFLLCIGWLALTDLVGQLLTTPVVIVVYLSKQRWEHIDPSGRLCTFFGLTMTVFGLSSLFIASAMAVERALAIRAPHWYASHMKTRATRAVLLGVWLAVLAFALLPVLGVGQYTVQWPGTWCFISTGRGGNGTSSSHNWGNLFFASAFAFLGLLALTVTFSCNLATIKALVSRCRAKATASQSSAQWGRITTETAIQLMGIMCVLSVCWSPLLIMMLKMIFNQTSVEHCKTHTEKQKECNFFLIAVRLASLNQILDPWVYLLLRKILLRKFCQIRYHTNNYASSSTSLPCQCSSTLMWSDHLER
Description: as §1

[6] = target: hEP2 (Homo sapiens, UniProt P43116)
Sequence of hEP2 (P43116 whole entry): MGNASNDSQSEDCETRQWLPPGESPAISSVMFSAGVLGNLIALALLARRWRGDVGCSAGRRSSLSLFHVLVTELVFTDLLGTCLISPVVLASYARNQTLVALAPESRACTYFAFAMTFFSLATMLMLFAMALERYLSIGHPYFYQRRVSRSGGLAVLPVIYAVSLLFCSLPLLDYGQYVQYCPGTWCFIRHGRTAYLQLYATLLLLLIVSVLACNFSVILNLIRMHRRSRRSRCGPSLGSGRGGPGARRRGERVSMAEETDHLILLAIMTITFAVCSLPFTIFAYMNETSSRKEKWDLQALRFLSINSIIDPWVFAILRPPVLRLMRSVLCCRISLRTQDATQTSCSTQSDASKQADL
Description: as §1

[7] = target: hEP4 (Homo sapiens, UniProt P35408)
Sequence of hEP4 (P35408 whole entry): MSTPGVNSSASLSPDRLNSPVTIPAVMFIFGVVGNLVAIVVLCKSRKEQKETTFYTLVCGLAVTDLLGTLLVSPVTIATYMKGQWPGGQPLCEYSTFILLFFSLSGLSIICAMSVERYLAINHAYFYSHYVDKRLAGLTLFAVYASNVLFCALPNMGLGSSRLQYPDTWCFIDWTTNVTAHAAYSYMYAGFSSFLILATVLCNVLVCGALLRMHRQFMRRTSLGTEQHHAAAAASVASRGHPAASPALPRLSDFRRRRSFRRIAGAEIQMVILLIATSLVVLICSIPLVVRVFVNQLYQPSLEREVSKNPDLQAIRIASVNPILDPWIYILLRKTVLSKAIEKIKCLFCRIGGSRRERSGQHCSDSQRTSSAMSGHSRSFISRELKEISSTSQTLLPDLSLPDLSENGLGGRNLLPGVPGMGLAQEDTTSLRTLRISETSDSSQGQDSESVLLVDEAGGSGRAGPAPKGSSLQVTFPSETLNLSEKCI
Description: as §1

[8] = target: hIP (Homo sapiens, UniProt P43119)
Sequence of hIP (P43119 whole entry): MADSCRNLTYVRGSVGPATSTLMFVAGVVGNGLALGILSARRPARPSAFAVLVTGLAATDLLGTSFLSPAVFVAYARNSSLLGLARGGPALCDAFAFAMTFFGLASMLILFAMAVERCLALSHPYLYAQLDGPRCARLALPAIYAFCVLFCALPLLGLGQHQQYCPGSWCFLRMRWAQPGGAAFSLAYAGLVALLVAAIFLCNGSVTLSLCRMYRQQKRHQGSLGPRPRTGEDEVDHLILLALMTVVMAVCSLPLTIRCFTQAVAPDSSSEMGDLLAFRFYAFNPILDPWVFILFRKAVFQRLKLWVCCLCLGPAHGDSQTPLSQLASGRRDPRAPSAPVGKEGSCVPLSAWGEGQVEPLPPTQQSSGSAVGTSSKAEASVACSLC
Description: as §1

Row | EC50 [1] [nM] | EC50 [2] [nM] | EC50 [3] [nM] | EC50 [4] [nM] | EC50 [5] [nM] | EC50 [6] [nM] | EC50 [7] [nM] | EC50 [8] [nM] | SMILES
1 | 561 | > 10000 | > 10000 | 304 | 36 | 380 | 0.26 | > 10000 | CCCCC[C@H](O)/C=C/[C@H]1[C@H](O)CC(=O)[C@@H]1SCCCSCC(=O)O [#1, {3-[(1R,2S,3R)-3-Hydroxy-2-((S)-(E)-3-hydroxyoct-1-enyl)-5-oxocyclopentyl-sulfanyl]propylsulfanyl}acetic acid]
2 | 3290 | > 10000 | > 10000 | 2260 | 44 | 1110 | 2.55 | > 10000 | CCCCC[C@H](O)/C=C/[C@H]1[C@H](O)CC(=O)[C@@H]1SCCCSCC(=O)OC(C)C [#2, {3-[(1R,2S,3R)-3-Hydroxy-2-((S)-(E)-3-hydroxyoct-1-enyl)-5-oxocyclopentyl-sulfanyl]propylsulfanyl}acetic acid isopropyl ester]
